PMC9564220, “Dipeptidyl peptidase-4 inhibitory potentials of Glycyrrhiza uralensis and its bioactive compounds licochalcone A and licochalcone B: An in silico and in vitro study” (Frontiers in Molecular Biosciences, 2022)

Biological target: T1, Dipeptidyl peptidase-4 (DPP-4) (Homo sapiens, UniProt P27487)
T1 construct: gene DPP4
Test: fluorescence DPP-4 inhibitor screening kit (Sigma Aldrich), kinetic mode
Type: biochemical

T1 sequence (P27487 whole entry): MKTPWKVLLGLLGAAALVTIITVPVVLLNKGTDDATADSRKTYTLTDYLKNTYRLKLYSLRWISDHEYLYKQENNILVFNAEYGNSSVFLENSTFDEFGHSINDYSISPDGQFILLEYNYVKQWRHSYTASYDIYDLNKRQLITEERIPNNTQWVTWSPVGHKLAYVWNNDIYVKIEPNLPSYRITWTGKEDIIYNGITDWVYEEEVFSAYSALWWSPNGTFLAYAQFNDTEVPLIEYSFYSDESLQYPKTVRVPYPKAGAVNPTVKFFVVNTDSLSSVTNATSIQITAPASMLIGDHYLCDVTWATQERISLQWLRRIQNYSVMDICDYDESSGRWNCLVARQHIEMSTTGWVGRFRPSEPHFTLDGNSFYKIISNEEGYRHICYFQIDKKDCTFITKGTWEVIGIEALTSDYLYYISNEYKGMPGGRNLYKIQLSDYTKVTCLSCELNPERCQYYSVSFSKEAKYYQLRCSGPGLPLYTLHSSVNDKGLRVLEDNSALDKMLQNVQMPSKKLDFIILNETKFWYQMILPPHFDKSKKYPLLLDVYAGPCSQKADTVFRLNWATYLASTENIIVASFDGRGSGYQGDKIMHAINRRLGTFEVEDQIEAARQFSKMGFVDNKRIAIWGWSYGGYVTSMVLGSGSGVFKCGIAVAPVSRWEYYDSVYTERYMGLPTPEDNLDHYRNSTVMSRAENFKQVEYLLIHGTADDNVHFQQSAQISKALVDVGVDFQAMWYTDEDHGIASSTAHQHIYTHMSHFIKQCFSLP

Row | IC50 [µM] | Structure (SMILES)
1 | ~348 | C=CC(C)(C)c1cc(/C=C/C(=O)c2ccc(O)cc2)c(OC)cc1O [LicA, licochalcone A]
2 | ~798 | COc1c(/C=C/C(=O)c2ccc(O)cc2)ccc(O)c1O [LicB, licochalcone B]
